{"source": "patent US20220402908A1", "about": "“CXCR6 INHIBITORS AND METHODS OF USE” (Sanford Burnham Prebys Medical Discovery Institute, priority 2019, published 2022)", "key": {"[1]": {"biological_target": "T1, CXCR6 (Homo sapiens, UniProt O00574)", "T1 sequence (O00574 whole entry)": "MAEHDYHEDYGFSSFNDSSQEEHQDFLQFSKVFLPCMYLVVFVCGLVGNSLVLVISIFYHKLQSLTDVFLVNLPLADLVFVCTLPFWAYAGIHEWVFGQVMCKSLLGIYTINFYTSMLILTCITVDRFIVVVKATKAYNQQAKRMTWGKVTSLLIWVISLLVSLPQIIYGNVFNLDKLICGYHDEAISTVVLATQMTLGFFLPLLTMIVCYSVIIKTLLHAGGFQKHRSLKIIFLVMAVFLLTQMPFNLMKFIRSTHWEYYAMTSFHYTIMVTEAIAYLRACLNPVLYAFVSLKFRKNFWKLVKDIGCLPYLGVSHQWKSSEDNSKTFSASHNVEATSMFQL", "assay": "CXCR6-dependent cAMP assay (Lance Ultra, PerkinElmer)", "type": "cell-based", "settings": "CXCR6-expressing cells, forskolin + CXCL16; Table B-1", "protocol": "(§1) Compounds of Formula (I), (Ia), (Ib), (Ic), (Id), and (II) are tested for their ability to inhibit β-arrestin recruitment in CXCR6-expressing CHO-K1 cells using the β-galactosidase PathHunter Enzyme Complementation Platform from DiscoveRx. A detailed protocol for this assay is available on PubChem (AIDs 624129). Accordingly, 800 CHO-K1 cells expressing CXCR6 (DiscoveRx, Cat #93-0205C2) are seeded into the wells of a white opaque 1536-well plate, centrifuged, and incubated overnight at 37° C., 5% CO2. The next day, compounds of Formula (I), (Ia), (Ib), (Ic), (Id), and (II) and controls (CXCL16 (10 nM) or DMSO) are dispensed into wells and incubated for 1.5 h. The assay is terminated upon addition of lysis buffer, detection substrate, and enzyme. Luminescence is read on the Envision plate reader 1 h post-termination. All compounds are tested in a 10 pt dose-response curve in duplicate. Compounds will also be tested in a CXCR6-dependent cAMP assay using the Lance Ultra assay from PerkinElmer. Accordingly, 2 uL CXCR6-expressing cells are suspended in assay media (OptiMEM; 2% FBS; 1×P/S) and plated at 500 cells/well in 1536-well, white, TC plates and grown overnight at 37° C.; 5% CO2. 40 nL test compounds of Formula (I), (Ia), (Ib), (Ic), (Id), and (II) are added to cells using ECHO dispenser. 2 uL of 2.5 mM forskolin in stimulation buffer (HBSS; 5 mM HEPES; 0.1% BSA; 0.1 mM RO-20-1724) with or without 20 nM CXCL16 is transferred to wells using BioRAPTR. Wells treated with forskolin and CXCL16 serve as negative controls and wells treated with forskolin only serve as positive controls. Cells are incubated at room temperature for 30 min followed by addition of 2 uL each EU-cAMP tracer and ULight anti-cAMP Ab in detection buffer according to manufacturer's instruction. After 30 min at room temperature, TR-FRET is read using EnVision plate reader."}, "[2]": {"biological_target": "T1, CXCR6", "assay": "β-arrestin recruitment inhibition in CXCR6-expressing CHO-K1 cells (PathHunter, DiscoveRx)", "type": "cell-based", "protocol": "as §1"}, "[3]": {"tested_on": "SK-Hep-1 cancer xenograft", "assay": "SK-Hep-1 cancer xenograft tumor growth", "type": "in vivo", "settings": "compared to control; FIG. 1 legend"}, "[4]": {"settings": "CXCR6-expressing CHO-K1 cells, Table B-1, read-out: IC50 (β-arrestin)"}}}
{"molecule": "COc1cc(C(=O)N[C@@H]2C[C@H]3CCC[C@@H](C2)N3Cc2nc3c(Cl)cccc3s2)cc(OC)c1OC", "note": "[N-((1R,3s,5S)-9-((4-chlorobenzo[d]thiazol-2-yl)methyl)-9-azabicyclo[3.3.1]nonan-3-yl)-3,4,5-trimethoxybenzamide]", "values": [{"measurement": "IC50", "setting": "[1]", "result": "0.1 to 2", "unit": "µM"}, {"measurement": "IC50", "setting": "[2]; [4]", "result": "100 to 2000", "unit": "nM"}]}
{"molecule": "CCC(C)Oc1ccc(C(=O)N[C@@H]2C[C@H]3CCC[C@@H](C2)N3Cc2nc3c(C(F)(F)F)cccc3s2)cc1OC", "note": "(stereo partly drawn) [4-(sec-butoxy)-3-methoxy-N-((1R,3s,5S)-9-((4-(trifluoromethyl)benzo[d]thiazol-2-yl)methyl)-9-azabicyclo[3.3.1]nonan-3-yl)benzamide]", "values": [{"measurement": "IC50", "setting": "[2]; [4]", "result": "< 100", "unit": "nM"}]}
{"molecule": "COc1cc(C(=O)N[C@@H]2C[C@H]3CCC[C@@H](C2)N3Cc2nc3c(Cl)c(Cl)ccc3s2)cc(OC)c1OC", "note": "[N-((1R,3s,5S)-9-((4,5-dichlorobenzo[d]thiazol-2-yl)methyl)-9-azabicyclo[3.3.1]nonan-3-yl)-3,4,5-trimethoxybenzamide]", "values": [{"measurement": "IC50", "setting": "[2]", "result": "< 100", "unit": "nM"}]}
{"molecule": "COc1cc(C(=O)N2C[C@H]3CCC[C@@H](C2)N3Cc2nc3c(C(F)(F)F)cccc3s2)cc(OC)c1OC", "note": "[((1R,5S)-9-((4-(trifluoromethyl)benzo[d]thiazol-2-yl)methyl)-3,9-diazabicyclo[3.3.1]nonan-3-yl)(3,4,5-trimethoxyphenyl)methanone]", "values": [{"measurement": "IC50", "setting": "[2]", "result": "100 to 2000", "unit": "nM"}]}
{"molecule": "COc1cc(C(=O)N[C@@H]2C[C@H]3CCC[C@@H](C2)N3Cc2nc3c(C(F)(F)F)cccc3s2)cc(OC)c1OC", "note": "[Compound 1, 3,4,5-trimethoxy-N-((1R,3s,5S)-9-((4-(trifluoromethyl)benzo[d]thiazol-2-yl)methyl)-9-azabicyclo[3.3.1]nonan-3-yl)benzamide]", "values": [{"measurement": "IC50", "setting": "[2]", "result": "< 100", "unit": "nM"}]}
{"molecule": "COc1cc(C(=O)N[C@@H]2C[C@H]3CCC[C@@H](C2)N3Cc2cc3ccccc3s2)cc(OC)c1OC", "note": "[N-((1R,3s,5S)-9-(benzo[b]thiophen-2-ylmethyl)-9-azabicyclo[3.3.1]nonan-3-yl)-3,4,5-trimethoxybenzamide]", "values": [{"measurement": "IC50", "setting": "[1]", "result": "5 to 20", "unit": "µM"}, {"measurement": "IC50", "setting": "[2]; [4]", "result": "100 to 2000", "unit": "nM"}]}
{"molecule": "COc1cc(C(=O)N[C@@H]2C[C@H]3CCC[C@@H](C2)N3CC(=O)Nc2ccccc2Cl)cc(OC)c1OC", "note": "[N-((1R,3s,5S)-9-(2-((2-chlorophenyl)amino)-2-oxoethyl)-9-azabicyclo[3.3.1]nonan-3-yl)-3,4,5-trimethoxybenzamide]", "values": [{"measurement": "IC50", "setting": "[1]", "result": "2 to 5", "unit": "µM"}, {"measurement": "IC50", "setting": "[2]; [4]", "result": "100 to 2000", "unit": "nM"}]}
{"molecule": "COc1cc(C(=O)N[C@@H]2C[C@H]3CCC[C@@H](C2)N3Cc2nc3c(C(F)(F)F)cccc3s2)ccc1OC(C)C", "note": "[4-isopropoxy-3-methoxy-N-((1R,3s,5S)-9-((4-(trifluoromethyl)benzo[d]thiazol-2-yl)methyl)-9-azabicyclo[3.3.1]nonan-3-yl)benzamide]", "values": [{"measurement": "IC50", "setting": "[2]", "result": "100 to 2000", "unit": "nM"}]}
{"molecule": "O=P1(N(CCCl)CCCl)NCCCO1", "note": "(stereo not drawn) [cyclophosphamide]", "values": [{"measurement": "tumor growth, SK-Hep-1 cancer xenograft", "setting": "[3]", "result": "tumor growth reduction"}]}
